In PubChem BioAssay (NCI):
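The compound was tested at five concentrations on cells cultured in 96-well plates, with a 48-hour exposure period. TGI: concentration producing complete growth inhibition.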

Experiments:
Assay in all cases: NCI-60 cell line screen, 48 h
SW-620 colon = test system: SW-620 colon
NCI/ADR-RES ovarian = test system: NCI/ADR-RES ovarian
RXF 393 renal = test system: RXF 393 renal
SK-MEL-5 melanoma = test system: SK-MEL-5 melanoma
HCT-15 colon = test system: HCT-15 colon
MCF7 breast = test system: MCF7 breast
UACC-62 melanoma = test system: UACC-62 melanoma
CCRF-CEM leukemia = test system: CCRF-CEM leukemia
UACC-257 melanoma = test system: UACC-257 melanoma
COLO 205 colon = test system: COLO 205 colon
SK-MEL-2 melanoma = test system: SK-MEL-2 melanoma
NCI-H226 lung = test system: NCI-H226 lung
TK-10 renal = test system: TK-10 renal
PC-3 prostate = test system: PC-3 prostate
DU-145 prostate = test system: DU-145 prostate

SMILES | TGI (SW-620 colon) [µM] | TGI (NCI/ADR-RES ovarian) [µM] | TGI (RXF 393 renal) [µM] | TGI (SK-MEL-5 melanoma) [µM] | TGI (HCT-15 colon) [µM] | TGI (MCF7 breast) [µM] | TGI (UACC-62 melanoma) [µM] | TGI (CCRF-CEM leukemia) [µM] | TGI (UACC-257 melanoma) [µM] | TGI (COLO 205 colon) [µM] | TGI (SK-MEL-2 melanoma) [µM] | TGI (NCI-H226 lung) [µM] | TGI (TK-10 renal) [µM] | TGI (PC-3 prostate) [µM] | TGI (DU-145 prostate) [µM]
CCOC(=O)/C=C/c1c[nH]c(C(=O)OCC)c1 | > 100 | > 100 | > 100 | > 100 | > 100 | > 100 | > 100 | > 100 | > 100 | > 100 | > 100 | > 100 | – | – | –
FC(F)(F)C1(C(F)(F)F)O[SiH]2(OC(C(F)(F)F)(C(F)(F)F)c3ccccc32)c2ccccc21 | 45.4 | – | 31.2 | – | 25.9 | – | – | – | 54.6 | 45.2 | 49.3 | 20.3 | 45.5 | – | –
COc1ccc2c(c1)N=C1CSC(c3c(Cl)cccc3[N+](=O)[O-])N1C2 (configuration not stated) | > 100 | > 100 | > 100 | 39.5 | > 100 | > 100 | 48.1 | – | > 100 | > 100 | > 100 | 84.6 | > 100 | > 100 | –
CN(C)CCCNc1ccc2nnn3c4ccc(OC(=O)c5ccc([N+](=O)[O-])cc5)cc4c(=O)c1c23 | 17 | 37.5 | 9.08 | – | 24.1 | > 38.9 | 37 | 5.39 | 31 | 18.2 | > 52.1 | – | 24.9 | 17.5 | 18.3
N/C(COc1ccc(Cl)cc1)=N\NC(=O)c1ccncc1 | > 100 | > 100 | > 100 | – | > 100 | > 100 | > 100 | > 100 | > 100 | > 100 | > 100 | – | > 100 | > 100 | > 100
O=C(NCCN1CCCC1)c1cn2c(ccc3sc4ccccc4c(=O)c32)n1 | 3.32 | 31.2 | 24.6 | 31.2 | 24.4 | – | 31.3 | 4.53 | 35 | 26.7 | 36 | 38.1 | 25.7 | 27.4 | 26.3
O=C(CN1CCOCC1)Nc1ccc2c(c1)C1Oc3ccccc3CC1CO2 (configuration not stated) | > 100 | > 100 | – | > 100 | > 100 | > 100 | > 100 | > 100 | > 100 | > 100 | > 100 | > 100 | > 100 | > 100 | > 100
COc1ccc(CCc2ccccc2CC(=O)O)cc1 | > 100 | – | > 100 | > 100 | > 100 | – | > 100 | > 100 | > 100 | > 100 | > 100 | > 100 | > 100 | – | –
COc1ccc([C@H](NC(=O)c2ccccc2)[C@@H](O)C(=O)O[C@H]2C[C@@]3(O)C(OC(=O)c4ccccc4)C4[C@](C)(C(=O)[C@H](OC(C)=O)C(=C2C)C3(C)C)[C@@H](O)C[C@H]2OC[C@@]42OC(C)=O)cc1 (some centres not stated) | > 10 | > 10 | > 10 | > 10 | > 8.98 | > 10 | > 10 | > 10 | > 10 | 0.0123 | > 10 | > 10 | > 10 | – | 0.00657
NS(=O)(=O)c1nnc(/N=C(/CCC(=O)O)C(=O)O)s1 | > 100 | > 100 | – | > 100 | > 100 | > 100 | > 100 | > 100 | > 100 | > 100 | > 100 | > 100 | > 100 | > 100 | > 100
Cc1csc2nc3[nH]ncc3c(=O)n12 | > 100 | > 100 | – | > 100 | > 100 | > 100 | > 100 | > 100 | > 100 | > 100 | > 100 | > 100 | – | > 100 | –
COc1ccc(NS(=O)c2ccc(OC)cc2)cc1 (configuration not stated) | > 100 | > 100 | – | > 100 | > 100 | > 100 | 66.2 | > 100 | > 100 | > 100 | 83.6 | > 100 | > 100 | – | > 100
COc1cccc(C[C@H]2COC(=O)[C@]2(O)Cc2cccc(OC)c2)c1 | > 100 | > 100 | – | > 100 | > 100 | – | > 100 | > 100 | > 100 | > 100 | > 100 | > 100 | > 100 | > 100 | > 100
COc1ccc2nc3ccc(OC)cc3c(SCC3CO3)c2c1 (configuration not stated) | 24.4 | 38.5 | 33.5 | 33.5 | 33.6 | 26.6 | – | > 100 | 29.8 | 41.8 | 28.4 | > 100 | 25.8 | 28.6 | –
Cc1nn(C(=O)Cc2ccccc2)c2c1C(c1ccccc1[N+](=O)[O-])SC(N)=N2 (configuration not stated) | > 100 | – | – | > 100 | > 100 | > 100 | > 100 | > 100 | > 100 | > 100 | – | > 100 | > 100 | > 100 | > 100
O=C(n1c(=O)n(-c2ccc(Cl)cc2)c(=O)n1C(=O)C(Cl)(Cl)Cl)C(Cl)(Cl)Cl | > 100 | > 100 | – | > 100 | – | > 100 | > 100 | > 100 | > 100 | > 100 | > 100 | – | > 100 | > 100 | > 100
COc1ccc(/C(C)=N/NC(=O)c2ccncc2)cc1OC | > 10 | > 10 | – | > 10 | > 10 | > 10 | > 10 | > 10 | > 10 | > 10 | – | > 10 | – | – | > 10
